Laboratory results reported in patent US20070203212A1, “METHOD OF TREATING OSTEOARTHRITIS” (WARNER-LAMBERT COMPANY, priority 2002, published 2007).
Marks after values point to notes of the source that are not given here.

Tests used:
[1] = system: carrageenan-induced thermal hyperalgesia; test: Carrageenan-induced thermal hyperalgesia (CITH), paw withdrawal latency; type: in vivo, rat; conditions: single oral dose 30 mg/kg on Day 1, 4 hours post dose
Method: Male Sprague Dawley rats (200-300 g), obtained from Charles River, were housed in groups of 2 under a 12 hour light/dark cycle with food and water ad libitum. Animals were allowed to acclimate to the test room one hour prior to testing.
Thermal hyperalgesia was assessed using the rat plantar test (apparatus from Univ. California, San Diego) following a modified method of Hargreaves et al., 1988. Rats were habituated to the apparatus, which consisted of three perspex boxes that individually housed […] on an elevated glass table. A mobile radiant heat source (halogen lamp) was located under the glass table and focused onto the hind paw. Paw withdrawal latencies (PWL) were recorded in seconds (“s”). An automatic cut off point of 22.5 s was set to prevent tissue damage. The mean of 2-3 PWL was taken at each time point for both hind paws of each animal. The apparatus was calibrated to give a PWL of approximately 10 s before carrageenan administration.
After basal PWL were determined, animals receive an intraplantar 100 μL of 10 mg/mL) into the right hind paw. Lambda carrageenan (Sigma Chemical Co.) was dissolved in isotonic saline 5 minutes prior to injecting. PWL were reassessed following the same protocol 2 hours post carrageenan (this time point represented the start of peak hyperalgesia) to ascertain that hyperalgesia had developed. 6-(5-Carboxy-5-methyl-hexyloxy)-2,2-dimethyl-hexanoic acid, calcium salt was then administered orally via oral dosing needles 2.5 hours post carrageenan injection, and PWL were taken again at 30- or 60-minute intervals post drug administration for 6 hours.
Data consisted of the mean of 2-3 reads/paw for individual animals. Group data was the compiled individual means. Percent inhibition was calculated as follows for each time point: (mean drug treated−mean control)/(mean baseline−mean control)×100.

[2] = system: leukotriene B4 (LTB4) expression; test: LTB4 expression from calcium ionophore-stimulated rat basophilic leukemia cells; type: cell-based
[3] = system: monosodium iodoacetate (MIA)-induced osteoarthritis; test: MIA rat model, chronic oral b.i.d. dosing: change in hind paw weight distribution (joint function limitation / joint pain); type: in vivo; conditions: for IJFL (Inhibition of Joint Function Limitation) (% +/− SEM): four week study; for change in hind paw weight distribution: Days 7, 14 and 28 (FIG. 3); for inhibition of change in hind paw weight distribution: 30 mg/kg PO b.i.d.
Method: It should be appreciated that in Biological Methods 1, 2, 4, and 5 below, hind paw weight bearing differentials between the paw of the limb having the control joint (in animals administered test compound vehicle only) and the paw of the limb having the contralateral test joint (in control or inducement animals administered test compound vehicle only and in treatment animals administered test compound dissolved in test compound vehicle) were determined using an incapacitance tester, model 2KG (Linton Instrumentation, Norfolk, United Kingdom). The incapacitance tester has a chamber on top with an outwardly sloping front wall that supports a rat's front limbs, and two weight sensing pads, one for each hind paw, that facilitates this determination. The hind paw weight bearing differentials were expressed in grams and calculated as follows: (the average weight in grams placed on the control limb minus the average weight in grams placed on the contralateral test limb for each of the inducement or treatment animals) minus (the average weight in grams placed on the control limb minus the average weight in grams placed on the contralateral test limb for each of the control animals). All results were statistically analyzed by comparing the average results for an induction or treatment group with the average result for its control group at the same time point using analysis of covariance (“ANCOVA”) followed by the Hoehberg's procedure and those with statistical significance had p<0.05 unless otherwise noted.
Generally, In the MIA Rat model on Day 0, the hind-paw weight differential between the right arthritic joint and the left healthy joint of male Wistar rats (150 g) are determined with an incapacitance tester, model 2KG (Linton Instrumentation, Norfolk, United Kingdom). The incapacitance tester has a chamber on top with an outwardly sloping front wall that supports a rat's front limbs, and two weight sensing pads, one for each hind paw, that facilitates this determination. Then the rats are anesthetized with isofluorine, and the right, hind leg knee joint is injected with 1.0 mg of mono-iodoacetate (“MIA”) through the infrapatellar ligament. Injection of MIA into the joint results in the inhibition of glycolysis and eventual death of surrounding chondrocytes. The rats are further administered either an active compound useful in the invention method, or a pharmaceutically acceptable salt thereof, or vehicle (in the instant case, water) daily for 14 days or 28 days. The substituted dialkyl ether, substituted aryl-alkyl ether, substituted dialkyl thioether, substituted dialkyl ketone, or substituted-alkyl compound useful in the invention method, or a pharmaceutically acceptable salt thereof, is typically administered at a dose of 30 mg of substituted dialkyl ether, substituted aryl-alkyl ether, substituted dialkyl thioether, substituted dialkyl ketone, or substituted-alkyl compound useful in the invention method, or a pharmaceutically acceptable salt thereof, per kilogram of rat per day (30 mg/kg/day), but may be administered at other doses such as, for example, mg/kg/day, 60 mg/kg/day, 90-mg/kg/day, or 100 mg/kg/day according to the requirements of the compound being studied. It is well within the level of ordinary skill in the pharmaceutical arts to determine a proper dosage of an active compound useful in the invention method, or a pharmaceutically acceptable salt thereof, in this model. Administration of the substituted dialkyl ether, substituted aryl-alkyl ether, substituted dialkyl thioether, substituted dialkyl ketone, or substituted-alkyl compound useful in the invention method, or a pharmaceutically acceptable salt thereof, in this model is optionally by oral administration or intravenous administration via an osmotic pump. After 7 and 14 days for a two week study, or 7, 14, and 28 days for a four week study, the hind-paw weight distribution is again determined. […]

CC(C)(CCCCOCCCCC(C)(C)C(=O)[O-])C(=O)[O-].[Ca+2] [CI-1027, 6-(5-carboxy-5-methyl-hexyloxy)-2,2-dimethyl-hexanoic acid, calcium salt]
Inhibition of Pain (% versus control), CITH (paw withdrawal latency) [1]: 65 ± 20%
inhibition of LTB4 expression [2]: does not inhibit
IJFL (Inhibition of Joint Function Limitation) (% +/− SEM) ([3]; 3 mg/kg PO BID): 3 +/− 156%
change in hind paw weight distribution ([3]; 3 mg/kg PO b.i.d.): no statistically significant changes
IJFL (Inhibition of Joint Function Limitation) (% +/− SEM) ([3]; 10 mg/kg PO BID): 36 +/− 9%
change in hind paw weight distribution ([3]; 10 mg/kg PO b.i.d.): no statistically significant changes
IJFL (Inhibition of Joint Function Limitation) (% +/− SEM) ([3]; 30 mg/kg PO BID, dose-response experiment): 63 +/− 8^a %
IJFL (Inhibition of Joint Function Limitation) (% +/− SEM) ([3]; 30 mg/kg PO BID, single-dose-level experiment (last table row)): 60 +/− 8^a %
inhibition of change in hind paw weight distribution ([3]; Day 7, dose-response experiment (FIG. 3), not significant): 38±14%
inhibition of change in hind paw weight distribution ([3]; Day 7, first experiment (FIG. 2)): 47±8%
inhibition of change in hind paw weight distribution ([3]; Day 14, dose-response experiment (FIG. 3)): 50±10%
inhibition of change in hind paw weight distribution ([3]; Day 14, first experiment (FIG. 2)): 71±9%
inhibition of change in hind paw weight distribution ([3]; Day 28, dose-response experiment (FIG. 3)): 62±8%
inhibition of change in hind paw weight distribution ([3]; Day 28, first experiment (FIG. 2)): 60±8%
